IC50 data for 20 compounds are collected here from patent publication US10399945B2, “Tetrahydronaphthyl urea derivative” (MOCHIDA PHARMACEUTICAL CO., LTD., priority 2017, dated 2019).

Bounds are passed on as bounds.

The target in this assay is Human TrkA Protein (Homo sapiens (Human), UniProt P04629). Description: Evaluation of Binding Activity for Human TrkA Protein (TrkA LanthaScreen Eu Kinase Binding Assay). The conditions noted are these: TrkA enzyme, Kinase Tracer 236, TR-FRET, 60 minutes at room temperature. The procedure: (Pharmacological Experimental Example 1): Evaluation of Binding Activity for Human TrkA Protein
Human TrkA Protein, sequence (P04629 33-796): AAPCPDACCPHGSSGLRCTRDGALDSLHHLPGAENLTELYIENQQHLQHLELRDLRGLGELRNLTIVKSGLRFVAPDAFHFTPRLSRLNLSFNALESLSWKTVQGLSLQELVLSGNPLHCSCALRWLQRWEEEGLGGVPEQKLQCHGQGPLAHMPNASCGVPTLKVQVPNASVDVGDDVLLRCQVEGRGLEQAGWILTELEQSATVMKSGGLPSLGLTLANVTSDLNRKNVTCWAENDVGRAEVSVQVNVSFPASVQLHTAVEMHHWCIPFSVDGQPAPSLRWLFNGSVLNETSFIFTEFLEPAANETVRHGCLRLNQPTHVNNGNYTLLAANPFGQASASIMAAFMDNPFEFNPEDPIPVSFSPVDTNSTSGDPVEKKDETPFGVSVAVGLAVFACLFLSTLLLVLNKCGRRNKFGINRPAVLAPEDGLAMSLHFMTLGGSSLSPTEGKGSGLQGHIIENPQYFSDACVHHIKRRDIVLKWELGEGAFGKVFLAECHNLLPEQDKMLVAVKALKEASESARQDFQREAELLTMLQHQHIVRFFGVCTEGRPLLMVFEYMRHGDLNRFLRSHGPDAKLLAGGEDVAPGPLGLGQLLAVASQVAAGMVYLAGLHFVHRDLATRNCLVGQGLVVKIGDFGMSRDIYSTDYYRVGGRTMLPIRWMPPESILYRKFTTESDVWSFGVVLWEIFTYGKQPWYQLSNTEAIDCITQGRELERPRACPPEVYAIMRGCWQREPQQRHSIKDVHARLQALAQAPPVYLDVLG
Measurement was carried out using TrkA LanthaScreen (registered trademark) Eu Kinase Binding Assay (ThermoFisher SCIENTIFIC). To a 384 well plate (Corning), 2.5 μL of the test compound having various concentrations and diluted with Kinase buffer (ThermoFisher SCIENTIFIC) and 2.5 μL of 15 nM TrkA enzyme (ThermoFisher SCIENTIFIC) were added. Moreover, […] Eu-anti-His Tag antibody (ThermoFisher SCIENTIFIC) and 5 μL of 30 nM Kinase (registered trademark) Tracer 236 (ThermoFisher SCIENTIFIC) were added, followed by reaction at room temperature for 60 minutes. After the reaction, the fluorescence intensity of Europium (Emission wavelength 615 nm) and TR-FRET (Emission wavelength 665 nm) with an excitation wavelength of 340 nm were measured with EnVision 2100 (PerkinElmer) to calculate the fluorescence ratio as the amount of the test compound and the TrkA enzyme bonded. The inhibitory activity (IC50 value) of each test compound was calculated with the fluorescence ratio of the well to which a solvent was added instead of the test compound being 0% and the fluorescence ratio of the well without addition of the TrkA protein being 100%.
In Table 1, […] mean Compounds 1 to 62 synthesized in accordance with Examples 1 to 62 described later.
For orientation: Time-resolved FRET reads energy transfer from a long-lived donor to a nearby acceptor.

The IC50 is the concentration that gives 50% inhibition. The compound `Cc1nnc(CNC(=O)c2nc(-c3ccccc3)c(NC(=O)N[C@@H]3c4cc(F)c(F)cc4C(C)(C)C[C@H]3O)cc2C)o1` (racemic) [Compound 41a] displayed a 50% inhibitory concentration (IC50) not above 50 nM.
`Cc1cc(NC(=O)N[C@@H]2c3cc(F)c(F)cc3C(C)(C)C[C@H]2O)c(-c2ccccc2)nc1-c1cnc(C(C)(C)O)nc1` (racemic) [Compound 54, rac-1-((1R,2R)-6,7-difluoro-2-hydroxy-4,4-dimethyl-1,2,3,4-tetrahydronaphthalen-1-yl)-3-(6-(2-(2-hydroxypropan-2-yl)pyrimidin-5-yl)-5-methyl-2-phenylpyridin-3-yl)urea] came in with an IC50 not above 50 nM.
Take `Cc1ncc(-c2nc(-c3ccccc3)c(NC(=O)N[C@@H]3c4ccccc4C(C)(C)C[C@H]3O)cc2C)cn1` (racemic) [Compound 3, rac-1-((1R,2R)-2-hydroxy-4,4-dimethyl-1,2,3,4-tetrahydronaphthalen-1-yl)-3-(5-methyl-6-(2-methylpyrimidin-5-yl)-2-phenylpyridin-3-yl)urea]: the IC50 is not above 50 nM.
Then `Cc1cnc(-c2ccccc2)c(NC(=O)N[C@@H]2c3ccc(Br)cc3C(C)(C)C[C@H]2O)c1` (racemic) [Compound 22, rac-1-((1R,2R)-6-bromo-2-hydroxy-4,4-dimethyl-1,2,3,4-tetrahydronaphthalen-1-yl)-3-(5-methyl-2-phenylpyridin-3-yl)urea], with not above 50 nM; and “rac-1-((1R,2R)-6,7-difluoro-2-hydroxy-4,4-dimethyl-1,2,3,4-tetrahydronaphthalen-1-yl)-3-(2-(hydroxymethyl)-3-methyl-6-phenyl-[2,4′-bipyridin]-5-yl)urea [Compound 56]”, with not above 50 nM.
Compound `Cc1cc(NC(=O)N[C@@H]2c3cc(F)c(F)cc3C(C)(C)C[C@H]2O)c(-c2ccccc2)nc1-c1ccn(C)n1` (racemic) [Compound 48a] gave an IC50 not above 50 nM.
Then `Cc1cc(NC(=O)N[C@@H]2c3ccccc3C(C)(C)C[C@H]2O)c(C2CCOCC2)nc1C(N)=O` (racemic) [Compound 27, rac-5-(3-((1R,2R)-2-hydroxy-4,4-dimethyl-1,2,3,4-tetrahydronaphthalen-1-yl)ureido)-3-methyl-6-(tetrahydro-2H-pyran-4-yl)picolinamide], with 50 to 1000 nM; and `Cc1cnc(-c2ccccc2)c(NC(=O)N[C@@H]2c3ccccc3C(C)(C)C[C@H]2O)c1` (racemic) [Compound 2, rac-1-((1R,2R)-2-hydroxy-4,4-dimethyl-1,2,3,4-tetrahydronaphthalen-1-yl)-3-(5-methyl-2-phenylpyridin-3-yl)urea], with not above 50 nM.
On to `Cc1cc(NC(=O)N[C@@H]2c3cc(F)c(F)cc3C(C)(C)C[C@H]2O)c(-c2ccccc2)nc1-c1ccn(C)n1` (racemic) [Compound 48, rac-1-((1R,2R)-6,7-difluoro-2-hydroxy-4,4-dimethyl-1,2,3,4-tetrahydronaphthalen-1-yl)-3-(5-methyl-6-(1-methyl-1H-pyrazol-3-yl)-2-phenylpyridin-3-yl)urea], for which the IC50 was not above 50 nM.
Under `Cc1cc(NC(=O)N[C@@H]2c3cc(F)c(F)cc3C(C)(C)C[C@H]2O)c(-c2ccccc2)nc1-c1cnn(C)c1` (racemic) [Compound 51, rac-1-((1R,2R)-6,7-difluoro-2-hydroxy-4,4-dimethyl-1,2,3,4-tetrahydronaphthalen-1-yl)-3-(5-methyl-6-(1-methyl-1H-pyrazol-4-yl)-2-phenylpyridin-3-yl)urea] stands not above 50 nM.
The compound `CC1(C)C[C@@H](O)[C@H](NC(=O)Nc2cccnc2-c2ccccc2)c2cc(F)c(F)cc21` (racemic) [Compound 36, rac-1-((1R,2R)-6,7-difluoro-2-hydroxy-4,4-dimethyl-1,2,3,4-tetrahydronaphthalen-1-yl)-3-(2-phenylpyridin-3-yl)urea] gave an IC50 not above 50 nM.
The compound `Cc1ccc(-c2nc(-c3ccccc3)c(NC(=O)N[C@@H]3c4ccccc4C(C)(C)C[C@H]3O)cc2C)cn1` [Compound 12, 1-(3,6′-dimethyl-6-phenyl-[2,3′-bipyridin]-5-yl)-3-((1R,2R)-2-hydroxy-4,4-dimethyl-1,2,3,4-tetrahydronaphthalen-1-yl)urea] showed a 50% inhibitory concentration (IC50) not above 50 nM.
`Cc1cc(NC(=O)N[C@@H]2c3ccccc3C(C)(C)C[C@H]2O)c(-c2ccccc2)nc1CO` [Compound 8, 1-((1R,2R)-2-hydroxy-4,4-dimethyl-1,2,3,4-tetrahydronaphthalen-1-yl)-3-(6-(hydroxymethyl)-5-methyl-2-phenylpyridin-3-yl)urea] displayed an IC50 not above 50 nM.
As for `Cc1ncc(-c2nc(C3CCOCC3)c(NC(=O)N[C@@H]3c4ccccc4C(C)(C)C[C@H]3O)cc2C)cn1` (racemic) [Compound 28, rac-1-((1R,2R)-2-hydroxy-4,4-dimethyl-1,2,3,4-tetrahydronaphthalen-1-yl)-3-(5-methyl-6-(2-methylpyrimidin-5-yl)-2-(tetrahydro-2H-pyran-4-yl)pyridin-3-yl)urea], the IC50 is not above 50 nM.
With `Cc1ncc(-c2nc(C3CCOCC3)c(NC(=O)N[C@@H]3c4cc(F)c(F)cc4C(C)(C)C[C@H]3O)cc2C)cn1` (racemic) [Compound 59, rac-1-((1R,2R)-6,7-difluoro-2-hydroxy-4,4-dimethyl-1,2,3,4-tetrahydronaphthalen-1-yl)-3-(5-methyl-6-(2-methylpyrimidin-5-yl)-2-(tetrahydro-2H-pyran-4-yl)pyridin-3-yl) urea], the half-inhibitory concentration (IC50) was 50 to 1000 nM.
As for `Cc1cc(NC(=O)N[C@@H]2c3ccccc3C(C)(C)C[C@H]2O)c(-c2ccccc2)nc1-c1cnc(C(C)(C)O)nc1` [Compound 21, 1-((1R,2R)-2-hydroxy-4,4-dimethyl-1,2,3,4-tetrahydronaphthalen-1-yl)-3-(6-(2-(2-hydroxypropan-2-yl)pyrimidin-5-yl)-5-methyl-2-phenylpyridin-3-yl)urea], the IC50 was not above 50 nM.
Under `Cc1cc(NC(=O)N[C@@H]2c3cc(F)c(F)cc3C(C)(C)C[C@H]2O)c(-c2ccccc2)nc1-c1cccc(CO)c1` (racemic) [Compound 46, rac-1-((1R,2R)-6,7-difluoro-2-hydroxy-4,4-dimethyl-1,2,3,4-tetrahydronaphthalen-1-yl)-3-(6-(3-(hydroxymethyl)phenyl)-5-methyl-2-phenylpyridin-3-yl)urea] stands not above 50 nM; under `Cc1cnc(-c2ccccc2)c(NC(=O)N[C@@H]2c3cc(F)c(F)cc3C(C)(C)C[C@H]2O)c1` (racemic) [Compound 37, rac-1-((1R,2R)-6,7-difluoro-2-hydroxy-4,4-dimethyl-1,2,3,4-tetrahydronaphthalen-1-yl)-3-(5-methyl-2-phenylpyridin-3-yl)urea], not above 50 nM; under `Cc1cc(NC(=O)N[C@@H]2c3ccccc3C(C)(C)C[C@H]2O)c(-c2ccccc2)nc1-c1ccc(C#N)cc1` [Compound 16, 1-(6-(4-cyanophenyl)-5-methyl-2-phenylpyridin-3-yl)-3-((1R,2R)-2-hydroxy-4,4-dimethyl-1,2,3,4-tetrahydronaphthalen-1-yl)urea], not above 50 nM.
`Cc1cc(NC(=O)N[C@@H]2c3ccccc3C(C)(C)C[C@H]2O)c(-c2ccccc2)nc1-c1cnn(C)c1` (racemic) [Compound 4, rac-1-((1R,2R)-2-hydroxy-4,4-dimethyl-1,2,3,4-tetrahydronaphthalen-1-yl)-3-(5-methyl-6-(1-methyl-1H-pyrazol-4-yl)-2-phenylpyridin-3-yl)urea] gave an IC50 not above 50 nM.
